Measured values as given in ChEMBL document CHEMBL5584231, “Rational design of a new short anticancer peptide with good potential for cancer treatment” (Eur J Med Chem, 2024).
Non-standard residues stand in square brackets, D forms with d. Residues, ends and D or L forms follow the SMILES beside them. Nle(6-COOH) = N[C@@H](CCCCC(=O)O)C(=O)O; Asu = N[C@@H](CCCCCC(=O)O)C(=O)O

What was measured:
A549 = experiment: Cytotoxicity against human A549 cells assessed as inhibition of cell growth incubated for 1 hr by MTT assay; type: functional, cell-based; settings: A549, 1 h
[1] = Cytotoxicity against HK-2 cells assessed as inhibition of cell growth incubated for 1 hr by MTT assay; type: toxicity, cell-based; settings: human
[2] = Therapeutic index, ratio of HC10 for mouse RBC to IC50 for cytotoxicity against human MCF7 cells; type: toxicity, cell-based; settings: mouse RBC and MCF7 cells, read-out: TI
[3] = Therapeutic index, ratio of HC10 for mouse RBC to IC50 for cytotoxicity against human A549 cells; type: toxicity, cell-based; settings: mouse RBC and A549 cells, read-out: TI
[4] = Cytotoxicity against RG cells (unknown origin) assessed as inhibition of cell growth incubated for 1 hr by MTT assay; type: functional, cell-based
[5] = Therapeutic index, ratio of HC10 for mouse RBC to IC50 for cytotoxicity against human HeLa cells; type: toxicity, cell-based; settings: mouse RBC and HeLa cells, read-out: TI
MCF7 = experiment: Cytotoxicity against human MCF7 cells assessed as inhibition of cell growth incubated for 1 hr by MTT assay; type: functional, cell-based; settings: MCF7, 1 h
HeLa = experiment: Cytotoxicity against human HeLa cells assessed as inhibition of cell growth incubated for 1 hr by MTT assay; type: functional, cell-based
[6] = Therapeutic index, ratio of HC10 for mouse RBC to IC50 for cytotoxicity against RG cells (unknown origin); type: toxicity, cell-based; settings: mouse RBC and RG cells, read-out: TI

CC(C)C[C@H](NC(=O)[C@H](CC(C)C)NC(=O)[C@H](CCCCN)NC(=O)[C@H](CCCCN)NC(=O)[C@H](CC(C)C)NC(=O)[C@H](CC(C)C)NC(=O)[C@H](CCCCN)NC(=O)[C@H](CCCCN)NC(=O)[C@H](CC(C)C)NC(=O)[C@H](CC(C)C)NC(=O)[C@H](CCC(=O)O)NC(=O)[C@H](CCCCN)NC(=O)[C@H](CC(C)C)NC(=O)[C@@H](N)CC(C)C)C(N)=O (H-LLKELLKKLLKKLL-NH2)
IC50 (A549): 23.8 µM
IC50 at 1 h [1]: 21.4 µM
selectivity ratio [2]: 1.24
selectivity ratio [3]: 0.966
IC50 [4]: 18.2 µM
selectivity ratio [5]: 1.78
IC50 (MCF7): 18.5 µM
IC50 (HeLa): 12.9 µM
selectivity ratio [6]: 1.26

CC(C)C[C@H](NC(=O)[C@H](CC(C)C)NC(=O)[C@H](CCCCN)NC(=O)[C@H](CCCCN)NC(=O)[C@H](CC(C)C)NC(=O)[C@H](CC(C)C)NC(=O)[C@H](CCCCN)NC(=O)[C@H](CCCCN)NC(=O)[C@H](CC(C)C)NC(=O)[C@H](CC(C)C)NC(=O)[C@H](CCCCN)NC(=O)[C@H](CCCCN)NC(=O)[C@H](CC(C)C)NC(=O)[C@H](CC(C)C)NC(=O)[C@@H](N)CCCCN)C(=O)N[C@@H](CCCCN)C(N)=O (H-KLLKKLLKKLLKKLLK-NH2)
IC50 (A549): 3.93 µM
IC50 at 1 h [1]: 7.36 µM
selectivity ratio [2]: 1.22
selectivity ratio [3]: 2.31
IC50 [4]: 6.79 µM
selectivity ratio [5]: 2.31
IC50 (MCF7): 7.46 µM
IC50 (HeLa): 3.94 µM
selectivity ratio [6]: 1.34

CC(C)C[C@H](NC(=O)[C@H](CCCCN)NC(=O)[C@H](CC(C)C)NC(=O)[C@H](CC(C)C)NC(=O)[C@H](CCCCN)NC(=O)[C@H](CCCCN)NC(=O)[C@H](CC(C)C)NC(=O)[C@H](CC(C)C)NC(=O)[C@H](CCCCN)NC(=O)[C@H](CCCCN)NC(=O)[C@H](CC(C)C)NC(=O)[C@H](CC(C)C)NC(=O)[C@H](CCCCN)NC(=O)[C@H](CCCCN)NC(=O)[C@H](CC(C)C)NC(=O)[C@H](CC(C)C)NC(=O)[C@H](CCCCN)NC(=O)[C@@H](N)CCCCN)C(N)=O (H-KKLLKKLLKKLLKKLLKL-NH2)
IC50 (A549): 5.61 µM
IC50 at 1 h [1]: 15.1 µM
selectivity ratio [2]: 1.05
selectivity ratio [3]: 1.11
IC50 [4]: 9.04 µM
selectivity ratio [5]: 1.8
IC50 (MCF7): 5.88 µM
IC50 (HeLa): 3.45 µM
selectivity ratio [6]: 0.686

CC(C)C[C@H](NC(=O)[C@H](CC(C)C)NC(=O)[C@H](CCCCN)NC(=O)[C@H](CCCCN)NC(=O)[C@H](CC(C)C)NC(=O)[C@H](CC(C)C)NC(=O)[C@H](CCCCN)NC(=O)[C@H](CCCCN)NC(=O)[C@H](CC(C)C)NC(=O)[C@H](CC(C)C)NC(=O)[C@H](CCCCN)NC(=O)[C@H](CCCCN)NC(=O)[C@H](CC(C)C)NC(=O)[C@@H](N)CCC(=O)O)C(N)=O (H-ELKKLLKKLLKKLL-NH2)
IC50 (A549): 14.7 µM
IC50 at 1 h [1]: 50.8 µM
selectivity ratio [2]: 0.647
selectivity ratio [3]: 1.75
IC50 [4]: 22.5 µM
selectivity ratio [5]: 1.58
IC50 (MCF7): 39.9 µM
IC50 (HeLa): 16.3 µM
selectivity ratio [6]: 1.15

CC(C)C[C@H](NC(=O)[C@H](CC(C)C)NC(=O)[C@H](CCCCN)NC(=O)[C@H](CCCCN)NC(=O)[C@H](CC(C)C)NC(=O)[C@H](CC(C)C)NC(=O)[C@H](CCCCN)NC(=O)[C@H](CCC(=O)O)NC(=O)[C@H](CC(C)C)NC(=O)[C@H](CC(C)C)NC(=O)[C@H](CCCCN)NC(=O)[C@H](CCCCN)NC(=O)[C@H](CC(C)C)NC(=O)[C@@H](N)CC(C)C)C(N)=O (H-LLKKLLEKLLKKLL-NH2)
IC50 (A549): 3.93 µM
IC50 at 1 h [1]: 4.9 µM
selectivity ratio [2]: 2.1
selectivity ratio [3]: 2.49
IC50 [4]: 4.5 µM
selectivity ratio [5]: 3.41
IC50 (MCF7): 4.67 µM
IC50 (HeLa): 2.87 µM
selectivity ratio [6]: 2.18

CC(C)C[C@H](NC(=O)[C@H](CC(C)C)NC(=O)[C@H](CCCCN)NC(=O)[C@H](CCCCN)NC(=O)[C@H](CC(C)C)NC(=O)[C@H](CC(C)C)NC(=O)[C@H](CCCCN)NC(=O)[C@H](CCCCN)NC(=O)[C@H](CC(C)C)NC(=O)[C@H](CCC(=O)O)NC(=O)[C@H](CCCCN)NC(=O)[C@H](CCCCN)NC(=O)[C@H](CC(C)C)NC(=O)[C@@H](N)CC(C)C)C(N)=O (H-LLKKELKKLLKKLL-NH2)
IC50 (A549): 17.3 µM
IC50 at 1 h [1]: 37.3 µM
selectivity ratio [2]: 8.02
selectivity ratio [3]: 9.94
IC50 [4]: 24.1 µM
selectivity ratio [5]: 12
IC50 (MCF7): 21.4 µM
IC50 (HeLa): 14.4 µM
selectivity ratio [6]: 7.14

CC(C)C[C@H](NC(=O)[C@H](CC(C)C)NC(=O)[C@H](CCCCN)NC(=O)[C@H](CCCCN)NC(=O)[C@H](CC(C)C)NC(=O)[C@H](CC(C)C)NC(=O)[C@H](CCCCN)NC(=O)[C@H](CCCCN)NC(=O)[C@H](CC(C)C)NC(=O)[C@H](CC(C)C)NC(=O)[C@H](CCCCN)NC(=O)[C@@H](N)CCCCN)C(=O)N[C@@H](CCCCN)C(N)=O (H-KKLLKKLLKKLLK-NH2)
IC50 (A549): 55.4 µM
IC50 at 1 h [1]: 63.9 µM
selectivity ratio [2]: 4.61
selectivity ratio [3]: 9.03
IC50 [4]: 93.3 µM
selectivity ratio [5]: 24.1
IC50 (MCF7): 108 µM
IC50 (HeLa): 20.8 µM
selectivity ratio [6]: 5.36

CC(C)C[C@H](NC(=O)[C@H](CCC(=O)O)NC(=O)[C@H](CCCCN)NC(=O)[C@H](CCCCN)NC(=O)[C@H](CC(C)C)NC(=O)[C@H](CC(C)C)NC(=O)[C@H](CCCCN)NC(=O)[C@H](CCCCN)NC(=O)[C@H](CC(C)C)NC(=O)[C@H](CC(C)C)NC(=O)[C@H](CCCCN)NC(=O)[C@H](CCCCN)NC(=O)[C@H](CC(C)C)NC(=O)[C@@H](N)CC(C)C)C(N)=O (H-LLKKLLKKLLKKEL-NH2)
IC50 (A549): 75.3 µM
IC50 at 1 h [1]: 73 µM
selectivity ratio [2]: 4.38
selectivity ratio [3]: 5.86
IC50 [4]: 75.9 µM
selectivity ratio [5]: 13.7
IC50 (MCF7): 101 µM
IC50 (HeLa): 32.2 µM
selectivity ratio [6]: 5.81

CC(C)C[C@H](NC(=O)[C@H](CCCCN)NC(=O)[C@H](CCCCN)NC(=O)[C@H](CC(C)C)NC(=O)[C@H](CC(C)C)NC(=O)[C@H](CCCCN)NC(=O)[C@H](CCCCN)NC(=O)[C@H](CC(C)C)NC(=O)[C@H](CC(C)C)NC(=O)[C@H](CCCCN)NC(=O)[C@H](CCCCN)NC(=O)[C@H](CC(C)C)NC(=O)[C@@H](N)CC(C)C)C(=O)N[C@@H](CCCCCC(=O)O)C(N)=O (H-LLKKLLKKLLKKL[Asu]-NH2)
IC50 (A549): 5.97 µM
IC50 at 1 h [1]: 15.3 µM
selectivity ratio [2]: 9.43
selectivity ratio [3]: 13.5
IC50 [4]: 12.8 µM
selectivity ratio [5]: 15.4
IC50 (MCF7): 8.55 µM
IC50 (HeLa): 5.23 µM
selectivity ratio [6]: 6.3

CC(C)C[C@H](NC(=O)[C@H](CCCCN)NC(=O)[C@H](CCCCN)NC(=O)[C@H](CC(C)C)NC(=O)[C@H](CC(C)C)NC(=O)[C@H](CCCCN)NC(=O)[C@H](CCCCN)NC(=O)[C@H](CC(C)C)NC(=O)[C@H](CC(C)C)NC(=O)[C@H](CCCCN)NC(=O)[C@H](CCCCN)NC(=O)[C@H](CC(C)C)NC(=O)[C@@H](N)CC(C)C)C(=O)N[C@@H](CCCCC(=O)O)C(N)=O (H-LLKKLLKKLLKKL[Nle(6-COOH)]-NH2)
IC50 (A549): 11.2 µM
IC50 at 1 h [1]: 26.4 µM
selectivity ratio [2]: 13.8
selectivity ratio [3]: 17.1
IC50 [4]: 20.4 µM
selectivity ratio [5]: 25.4
IC50 (MCF7): 14 µM
IC50 (HeLa): 7.59 µM
selectivity ratio [6]: 9.42
